Laboratory results published in PMC11731258, “The structural basis for high-affinity c-di-GMP binding to the GSPII-B domain of the traffic ATPase PilF from Thermus thermophilus” (The Journal of Biological Chemistry, 2024).
Read-outs that look alike come from different tables or passages of the source.

Tests used:
PilF159-302 L196R = target: T1, PilF159-302 L196R (Thermus thermophilus, UniProt Q5SLC9, L196R); assay: ITC binding to PilF159-302 L196R; details: 20 °C
T1 sequence (Q5SLC9 159-302 L196R): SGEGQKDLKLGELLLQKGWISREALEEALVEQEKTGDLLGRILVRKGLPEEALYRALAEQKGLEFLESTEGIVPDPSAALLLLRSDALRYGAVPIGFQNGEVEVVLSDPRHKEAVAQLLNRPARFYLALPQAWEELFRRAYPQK
Method: (§1) To assess the ligand-binding capabilities of the various PilF constructs, triplicates of ITC measurements were recorded for each construct. The measurements were carried out using a MicroCal ITC200 (Malvern Panalytical). All ITC experiments were conducted at 20 °C with 50 mM Tris-HCl pH 7.5, 200 mM sodium chloride, 1 mM β-mercaptoethanol as the sample buffer. All protein samples were extensively dialyzed against the sample buffer and the buffer used for dialysis was used to dilute protein and c-di-GMP samples in preparation for the ITC measurements. Each measurement was conducted using the following protocol. In total, 39.8 μl c-di-GMP were titrated to 270 μl protein in 20 separate injections in 180 s intervals with a stirring speed of 750 rpm. After an initial delay of 120 s, the first injection of 0.2 μl c-di-GMP with a duration of 0.4 s was followed by 19 injections of 2 μl with a duration of 4 s. During the measurement, the feedback mode was set to high and the reference power to 11 μcal s^−1. To optimize precision of the measurements, protein and c-di-GMP concentrations were adjusted to the binding capabilities of the respective constructs and ranged from 5 to 200 μM for protein and 50 to 2000 μM for c-di-GMP. All thermograms were processed using Origin 7.0 (OriginLab) using a one-site– or two-site–binding model dependent on the number of expected binding events.

PilF159-302 K167R = target: T2, PilF159-302 K167R (Thermus thermophilus, UniProt Q5SLC9, K167R); assay: ITC binding to PilF159-302 K167R; details: 20 °C
T2 sequence (Q5SLC9 159-302 K167R): T1 sequence (Q5SLC9 159-302 L196R)
Method: as §1

PilF159-302 Q190E+Q218E = assay: ITC binding to PilF159-302 Q190E+Q218E; set-up: species or system Thermus thermophilus; details: 20 °C, double mutant
Method: as §1

[1] = target: MshEN lacking the entire C-terminal subdomain; set-up: method as in PMID 27578558; details: entire C-terminal subdomain deleted; read-out: KD (ligand affinity); cited from earlier work
PilF159-482 = target: T3, PilF159-482 (Thermus thermophilus, UniProt Q5SLC9); assay: ITC binding to PilF159-482; details: 20 °C; for Kd: pH 7.5, two-site model
T3 sequence (Q5SLC9 159-482): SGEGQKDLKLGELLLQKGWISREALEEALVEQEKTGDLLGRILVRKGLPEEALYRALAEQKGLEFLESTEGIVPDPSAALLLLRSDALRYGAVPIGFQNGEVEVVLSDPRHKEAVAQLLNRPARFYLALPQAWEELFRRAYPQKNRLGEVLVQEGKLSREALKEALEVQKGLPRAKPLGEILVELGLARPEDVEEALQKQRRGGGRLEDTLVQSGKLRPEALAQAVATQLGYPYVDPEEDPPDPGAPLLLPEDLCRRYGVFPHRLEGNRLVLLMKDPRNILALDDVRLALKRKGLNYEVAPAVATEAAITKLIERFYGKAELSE
Method: as §1

[2] = target: degenerate EAL-domain of FimX; set-up: method as in PMID 19679088; details: cited from earlier work
PilF159-302 Q218E = target: T4, PilF159-302 Q218E (Thermus thermophilus, UniProt Q5SLC9, Q218E); assay: ITC binding to PilF159-302 Q218E; details: 20 °C
T4 sequence (Q5SLC9 159-302 Q218E): T1 sequence (Q5SLC9 159-302 L196R)
Method: as §1

PilB = target: PilB; set-up: method as in PMID 27578558, PMID 31868878; details: cited from earlier work
PilF159-302 L166G = target: T5, PilF159-302 L166G (Thermus thermophilus, UniProt Q5SLC9, L166G); assay: ITC binding to PilF159-302 L166G; details: 20 °C
T5 sequence (Q5SLC9 159-302 L166G): T1 sequence (Q5SLC9 159-302 L196R)
Method: as §1

[3] = target: T6, PilF1-482 (GSPII-A, -B, -C; lacks ATPase domain) (Thermus thermophilus, UniProt Q5SLC9); assay: ITC binding to PilF1-482; details: 20 °C; for Kd: pH 7.5, two-site model
T6 sequence (Q5SLC9 1-482): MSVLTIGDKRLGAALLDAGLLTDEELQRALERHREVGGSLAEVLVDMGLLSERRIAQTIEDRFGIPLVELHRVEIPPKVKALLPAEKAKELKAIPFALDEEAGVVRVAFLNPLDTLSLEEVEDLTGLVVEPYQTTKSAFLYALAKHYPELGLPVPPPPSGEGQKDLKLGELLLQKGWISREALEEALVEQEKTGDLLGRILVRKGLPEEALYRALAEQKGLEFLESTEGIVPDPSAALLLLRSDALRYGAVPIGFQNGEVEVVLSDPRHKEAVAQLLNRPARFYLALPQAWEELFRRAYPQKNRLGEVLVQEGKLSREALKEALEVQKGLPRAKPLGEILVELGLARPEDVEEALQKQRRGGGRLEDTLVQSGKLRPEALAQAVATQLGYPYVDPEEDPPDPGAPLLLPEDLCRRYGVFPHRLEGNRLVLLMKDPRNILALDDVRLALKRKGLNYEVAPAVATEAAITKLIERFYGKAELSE
Method: as §1

PilZ domain of PlzD = target: PilZ domain of PlzD; set-up: method as in PMID 18034161; details: cited from earlier work

Question: For `Nc1nc2c(ncn2[C@@H]2O[C@@H]3COP(=O)(O)O[C@H]4[C@@H](O)[C@H](n5cnc6c(=O)[nH]c(N)nc65)O[C@@H]4COP(=O)(O)O[C@H]3[C@H]2O)c(=O)[nH]1` [c-di-GMP, cyclic dimeric guanosine monophosphate], which N (PilF159-302 L196R) is on record?
Answer: 1.23 ± 0.03

Question: What about the ΔH (PilF159-302 L196R) of the same molecule?
Answer: -8.148 ± 0.209 kcal/mol

Question: And the ΔS (PilF159-302 L196R)?
Answer: 7.1 ± 0.8 cal/mol/deg

Question: And the Kd (PilF159-302 L196R; pH 7.5)?
Answer: 23 ± 2 nM

Question: And the N (PilF159-302 K167R)?
Answer: 0.79 ± 0.03

Question: What about the ΔH (PilF159-302 K167R) of the same molecule?
Answer: -10.42 ± 0.552 kcal/mol

Question: What about the ΔS (PilF159-302 K167R) of the same molecule?
Answer: -4.4 ± 1.9 cal/mol/deg

Question: And the Kd (PilF159-302 K167R; pH 7.5)?
Answer: 150 ± 7 nM

Question: And the c-di-GMP binding (PilF159-302 Q190E+Q218E)?
Answer: abrogated c-di-GMP binding

Question: And the Kd [1]?
Answer: 350 nM

Question: And the “N, site 1” value (PilF159-482; Table S1 site 1)?
Answer: 1 ± 0.1

Question: And the “ΔH, site 1” value (PilF159-482; Table S1 site 1)?
Answer: -8.689 ± 0.959 kcal/mol

Question: And the “ΔS, site 1” value (PilF159-482; Table S1 site 1)?
Answer: 0.95 ± 3.5 cal/mol/deg

Question: What about the “N, site 2” value (PilF159-482; Table S1 site 2) of the same molecule?
Answer: 0.7 ± 0.1

Question: And the “ΔH, site 2” value (PilF159-482; Table S1 site 2)?
Answer: -11.766 ± 1.182 kcal/mol

Question: And the “ΔS, site 2” value (PilF159-482; Table S1 site 2)?
Answer: 2.1 ± 4.7 cal/mol/deg

Question: What about the Kd (PilF159-482; read-out: KD, site 1 (low affinity)) of the same molecule?
Answer: 208 ± 27 nM

Question: And the Kd (PilF159-482; read-out: KD, site 2 (high affinity))?
Answer: 1 ± 0.3 nM

Question: And the Kd [2]?
Answer: 100 to 200 nM

Question: And the N (PilF159-302 Q218E)?
Answer: 1.26 ± 0.06

Question: What about the ΔH (PilF159-302 Q218E) of the same molecule?
Answer: -5.312 ± 0.34 kcal/mol

Question: And the ΔS (PilF159-302 Q218E)?
Answer: 10.9 ± 1.0 cal/mol/deg

Question: And the Kd (PilF159-302 Q218E; pH 7.5)?
Answer: 460 ± 28 nM

Question: And the Kd (PilB)?
Answer: 53 nM

Question: What about the N (PilF159-302 L166G) of the same molecule?
Answer: 0.92 ± 0.10

Question: And the ΔH (PilF159-302 L166G)?
Answer: -10.283 ± 0.189 kcal/mol

Question: What about the ΔS (PilF159-302 L166G) of the same molecule?
Answer: 1.2 ± 3.4 cal/mol/deg

Question: And the Kd (PilF159-302 L166G; pH 7.5)?
Answer: 3 nM

Question: And the “N, site 1” value ([3]; Table S1 site 1)?
Answer: 0.98 ± 0.04

Question: And the “ΔH, site 1” value ([3]; Table S1 site 1)?
Answer: -12.793 ± 0.095 kcal/mol

Question: And the “ΔS, site 1” value ([3]; Table S1 site 1)?
Answer: -14.6 ± 0.2 cal/mol/deg

Question: What about the “N, site 2” value ([3]; Table S1 site 2) of the same molecule?
Answer: 0.85 ± 0.03

Question: What about the “ΔH, site 2” value ([3]; Table S1 site 2) of the same molecule?
Answer: -17.536 ± 0.128 kcal/mol

Question: What about the “ΔS, site 2” value ([3]; Table S1 site 2) of the same molecule?
Answer: -24.3 ± 0.3 cal/mol/deg

Question: What about the Kd ([3]; read-out: KD, high-affinity site (KD1 in text; site 2 in Table S1)) of the same molecule?
Answer: 17 ± 1 nM

Question: What about the Kd ([3]; read-out: KD, low-affinity site (KD2 in text; site 1 in Table S1)) of the same molecule?
Answer: 461 ± 36 nM

Question: What about the Kd (PilZ domain of PlzD) of the same molecule?
Answer: 100 to 300 nM
